Source: PMC8121805, “Discovery of first-in-class inhibitors of ASH1L histone methyltransferase with anti-leukemic activity” (Nature Communications, 2021)
Where “and” joins values, the source holds several entries; their conditions need not be identical. Identical values can stand only once. Entries after “also recorded” stand apart in the source; their conditions may differ.

Assays:
SETD2 = SETD2 (Homo sapiens, UniProt Q9BYW2); test: HMT selectivity panel; conditions: SETD2, 50 µM compound
Source text: Assay conditions for selectivity experiments with a panel of histone
(§9) mM DTT and 0.01% Triton X-100 was used in experiments containing core histone.

[1] = test system: MLL fusion target genes in MV4;11 cells; test: Real time qRT-PCR gene expression; assay type: cell-based, human
Protocol: 0.5 × 10^6 – 3 × 10^6 cells from each sample were collected at days 7 or 8 of treatment, centrifuged at 211 xg, and RNA was extracted according to the RNeasy Mini Kit protocol (74106, Qiagen). Extracted RNA was quantified using Nanodrop 2000 UV-Vis spectrophotometer and 0.5–1 µg of total RNA was reverse transcribed into cDNA using High-Capacity cDNA Reverse Transcription Kit (4368814, Applied Biosystems™) according to the manufacturer’s protocol. Real-time PCR was performed using the CFX96 Touch Real-Time PCR Detection System (Bio-Rad). TaqMan Gene Expression Master Mix and TaqMan Gene Expression Assays were purchased from Applied Biosystems. Relative quantification of each gene transcript was carried out using the comparative Ct method as described in the Applied Biosystems User Bulletin no. 2. TaqMan Gene Expression Assays were used: HPRT1: Hs02800695_m1, DLX2: Hs00269993_m1, FLT3: Hs00174690_m1, HOXA9: Hs00365956_m1, MEF2C: Hs00231149_m1, MEIS1: Hs00180020_m1, MNDA: Hs00935905_m1.
Supplementary Figure 10. Effect of AS-nc on gene expression in MLL leukemia cells. (a, b) Quantitative RT-PCR performed in MOLM13 cells (a) or MV4;11 cells (b) after 7 days of treatment with AS-nc. Gene expression was normalized to HPRT1 and referenced to the DMSO treated cells. Representative data from two independent experiments, each performed in triplicates, […]

[2] = test system: panel of diverse set of 30 kinases; test: Profiling with kinases; conditions: 25 µM, 1 h incubation
Source text: This study was outsourced to the Contract Research Organization.

[3] = test system: panel of 20 histone methyltransferases; test: Panel of 20 histone methyltransferases as a whole; conditions: 50 µM
Protocol: as §9
experiments containing nucleosome.
G9a 5 core histone 0.05 mg/mL 1
GLP 5 core histone 0.05 mg/mL 1

GLP = GLP (Homo sapiens, UniProt Q9H9B1); test: HMT selectivity panel; conditions: 50 µM compound
Sequence of GLP (Q9H9B1 whole entry): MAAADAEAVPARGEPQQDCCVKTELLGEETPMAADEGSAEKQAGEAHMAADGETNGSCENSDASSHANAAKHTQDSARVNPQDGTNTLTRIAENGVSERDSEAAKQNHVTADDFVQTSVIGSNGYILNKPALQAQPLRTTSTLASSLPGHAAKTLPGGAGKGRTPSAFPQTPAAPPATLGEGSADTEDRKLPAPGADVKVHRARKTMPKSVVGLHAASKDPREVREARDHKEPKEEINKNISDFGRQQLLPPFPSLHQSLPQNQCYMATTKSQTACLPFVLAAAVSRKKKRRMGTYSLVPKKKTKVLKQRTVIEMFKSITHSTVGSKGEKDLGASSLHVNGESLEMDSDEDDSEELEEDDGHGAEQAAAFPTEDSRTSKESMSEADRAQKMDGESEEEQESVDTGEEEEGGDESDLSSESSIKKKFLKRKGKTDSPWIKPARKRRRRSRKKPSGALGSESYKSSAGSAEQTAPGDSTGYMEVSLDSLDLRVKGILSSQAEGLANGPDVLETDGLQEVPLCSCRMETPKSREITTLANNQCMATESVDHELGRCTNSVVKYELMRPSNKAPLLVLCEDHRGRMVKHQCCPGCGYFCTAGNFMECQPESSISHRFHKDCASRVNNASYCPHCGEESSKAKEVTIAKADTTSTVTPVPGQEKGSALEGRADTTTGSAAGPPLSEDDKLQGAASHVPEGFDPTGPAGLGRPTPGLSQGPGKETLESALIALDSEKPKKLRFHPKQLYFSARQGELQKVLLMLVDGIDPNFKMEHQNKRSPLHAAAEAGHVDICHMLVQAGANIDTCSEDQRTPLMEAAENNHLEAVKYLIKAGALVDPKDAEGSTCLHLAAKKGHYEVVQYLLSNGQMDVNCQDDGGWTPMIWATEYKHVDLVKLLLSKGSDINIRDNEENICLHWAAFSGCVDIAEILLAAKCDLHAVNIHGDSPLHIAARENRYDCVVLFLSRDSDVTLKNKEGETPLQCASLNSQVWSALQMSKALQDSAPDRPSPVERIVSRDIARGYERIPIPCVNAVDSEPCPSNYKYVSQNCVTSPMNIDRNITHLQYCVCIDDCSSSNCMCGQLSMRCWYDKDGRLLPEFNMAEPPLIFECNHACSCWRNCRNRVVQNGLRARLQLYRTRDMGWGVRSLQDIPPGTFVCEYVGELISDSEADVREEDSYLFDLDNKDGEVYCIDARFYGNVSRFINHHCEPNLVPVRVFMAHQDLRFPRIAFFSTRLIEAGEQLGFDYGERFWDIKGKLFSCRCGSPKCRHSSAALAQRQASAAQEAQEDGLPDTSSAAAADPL
Protocol: as §9
experiments containing nucleosome.
G9a 5 core histone 0.05 mg/mL 1
GLP 5 core histone 0.05 mg/mL 1

MV4;11 cells [4] = test: MTT cell viability assay; assay type: cell-based, human; conditions: MTT, 7 days
Protocol: (§1) FBS and 1% penicillin/streptomycin. […] Media was changed on day 3 or 4 and compounds were resupplied. […] Cell suspensions (100 μL) were transferred to the 96-well plates for each sample in quadruplicate at the time of media change. At day 7, 10 µL of MTT reagent (M6494, Molecular Probes™) was added to each well of the 96 well plate and incubated at 37 °C for 4 h. The formazan was then solubilized by adding 100 µL acidified 10% SDS solution and incubated at 37 °C overnight. Plates were read for absorbance at 570 nm using a PHERAstar BMG microplate reader. The experiments were performed two times in quadruplicates with calculation of mean and SD for each condition. Data were analyzed in Prism 8.0.0 to obtain GI50 values.
(§2) Supplementary Figure 7. […] (a)
(§3) Titration curves from the MTT cell viability assay performed after 4, 7, and 11 (or 10) days of
(§4) Titration curves from the MTT cell viability assay performed after 7 days of treatment of KOPN8 ,
(§5) MOLM13 and MV4;11 cell lines harboring MLL1 translocation (MLL1-r) or K562 cell line (non-
(§6) Representative graphs are shown
(§7) from two independent MTT experiments performed for each cell line.

MOLM13 cells = test: MTT cell viability assay; assay type: cell-based, human; conditions: MTT, 7 days
Protocol: as §1, §2, §3, §4, §5, §6, §7

MV4;11 cells [5] = test: Annexin V apoptosis assay (flow cytometry); assay type: cell-based, human; conditions: for MV4;11 % Annexin V/PI+ cells / MV4;11 % Annexin V(+) cells: 7 days; for apoptosis in the MLL leukemia cells (Annexin V positive cells): MV4;11 and KOPN8
MV4;11 cells [6] = test: Flow cytometry of CD11B expression (differentiation); assay type: cell-based, human; conditions: for MV4;11 % CD11B+ cells: 7 days
Protocol: (§8) In addition, 1 × 10^5 cells per sample were stained with Zombie Aqua™ dye (1:100 dilution) for 15 min using the Zombie Aqua™ Fixable Viability Kit (Zombie Aqua™ Fixable Viability Kit, Biolegend®) […] and then for 30 min with an anti-CD11B-PE antibody (982606, ICRF44, Biolegend®) or anti-CD11B-Pacific Blue (101224, BD BioLegend) antibody at 1:50 dilution, according to the No-wash Sequential Staining Protocol described by the manufacturer (BioLegend, Zombie Aqua Fixable Viability Kit). Cells were washed twice with 500 µL PBS containing 1% FBS and resuspended in 200 µL PBS with 1% FBS.

KOPN8 cells = test: as above; assay type: cell-based, human; conditions: 7 days
Protocol: as §8

PRMT1 = PRMT1 (Homo sapiens, UniProt Q99873); test: HMT selectivity panel; conditions: PRMT1, 50 µM compound
Source text: as §9

MLL1 = MLL1 (Homo sapiens, UniProt Q03164); test: HMT selectivity panel; conditions: MLL1, 50 µM compound
Source text: as §9

G9a = G9a (Homo sapiens, UniProt Q96KQ7); test: HMT selectivity panel; conditions: 50 µM compound
Sequence of G9a (Q96KQ7 whole entry, species assumed): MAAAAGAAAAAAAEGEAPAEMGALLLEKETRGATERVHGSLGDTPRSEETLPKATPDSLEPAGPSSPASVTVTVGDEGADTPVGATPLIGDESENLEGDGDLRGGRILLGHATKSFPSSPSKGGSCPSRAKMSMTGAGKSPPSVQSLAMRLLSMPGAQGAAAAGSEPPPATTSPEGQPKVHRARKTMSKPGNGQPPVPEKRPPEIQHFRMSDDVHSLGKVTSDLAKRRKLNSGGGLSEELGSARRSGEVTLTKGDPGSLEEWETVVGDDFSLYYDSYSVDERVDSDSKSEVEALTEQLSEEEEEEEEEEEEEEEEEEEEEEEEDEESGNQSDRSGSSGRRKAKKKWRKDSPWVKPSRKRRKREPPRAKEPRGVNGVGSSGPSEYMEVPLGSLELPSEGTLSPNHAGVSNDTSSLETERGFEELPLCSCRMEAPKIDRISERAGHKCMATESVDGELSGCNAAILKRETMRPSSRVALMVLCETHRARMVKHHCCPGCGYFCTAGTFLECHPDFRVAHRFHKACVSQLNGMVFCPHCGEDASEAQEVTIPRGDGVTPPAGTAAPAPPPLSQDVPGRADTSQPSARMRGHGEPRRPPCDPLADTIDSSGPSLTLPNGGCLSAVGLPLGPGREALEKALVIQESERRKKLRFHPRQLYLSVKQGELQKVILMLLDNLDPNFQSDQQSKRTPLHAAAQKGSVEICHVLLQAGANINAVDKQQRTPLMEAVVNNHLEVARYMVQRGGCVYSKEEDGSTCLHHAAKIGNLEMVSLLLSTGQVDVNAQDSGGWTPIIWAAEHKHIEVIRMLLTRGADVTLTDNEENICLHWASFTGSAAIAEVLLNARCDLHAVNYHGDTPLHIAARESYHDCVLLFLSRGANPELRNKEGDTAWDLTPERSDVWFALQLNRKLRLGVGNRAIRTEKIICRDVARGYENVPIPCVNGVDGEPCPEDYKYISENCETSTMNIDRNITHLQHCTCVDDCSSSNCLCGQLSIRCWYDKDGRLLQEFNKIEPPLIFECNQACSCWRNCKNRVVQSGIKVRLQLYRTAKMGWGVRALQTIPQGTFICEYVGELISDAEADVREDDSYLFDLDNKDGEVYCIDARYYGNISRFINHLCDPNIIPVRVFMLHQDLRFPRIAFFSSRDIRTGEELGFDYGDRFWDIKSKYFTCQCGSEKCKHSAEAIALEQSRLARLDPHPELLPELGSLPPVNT
Protocol: as §9
experiments containing nucleosome.
G9a 5 core histone 0.05 mg/mL 1
GLP 5 core histone 0.05 mg/mL 1

[7] = MV4;11, 7 days, 3 uM, normalized to HPRT1, referenced to DMSO

Sequence of SETD2 (Q9BYW2 whole entry, species assumed, the tested form may be a part): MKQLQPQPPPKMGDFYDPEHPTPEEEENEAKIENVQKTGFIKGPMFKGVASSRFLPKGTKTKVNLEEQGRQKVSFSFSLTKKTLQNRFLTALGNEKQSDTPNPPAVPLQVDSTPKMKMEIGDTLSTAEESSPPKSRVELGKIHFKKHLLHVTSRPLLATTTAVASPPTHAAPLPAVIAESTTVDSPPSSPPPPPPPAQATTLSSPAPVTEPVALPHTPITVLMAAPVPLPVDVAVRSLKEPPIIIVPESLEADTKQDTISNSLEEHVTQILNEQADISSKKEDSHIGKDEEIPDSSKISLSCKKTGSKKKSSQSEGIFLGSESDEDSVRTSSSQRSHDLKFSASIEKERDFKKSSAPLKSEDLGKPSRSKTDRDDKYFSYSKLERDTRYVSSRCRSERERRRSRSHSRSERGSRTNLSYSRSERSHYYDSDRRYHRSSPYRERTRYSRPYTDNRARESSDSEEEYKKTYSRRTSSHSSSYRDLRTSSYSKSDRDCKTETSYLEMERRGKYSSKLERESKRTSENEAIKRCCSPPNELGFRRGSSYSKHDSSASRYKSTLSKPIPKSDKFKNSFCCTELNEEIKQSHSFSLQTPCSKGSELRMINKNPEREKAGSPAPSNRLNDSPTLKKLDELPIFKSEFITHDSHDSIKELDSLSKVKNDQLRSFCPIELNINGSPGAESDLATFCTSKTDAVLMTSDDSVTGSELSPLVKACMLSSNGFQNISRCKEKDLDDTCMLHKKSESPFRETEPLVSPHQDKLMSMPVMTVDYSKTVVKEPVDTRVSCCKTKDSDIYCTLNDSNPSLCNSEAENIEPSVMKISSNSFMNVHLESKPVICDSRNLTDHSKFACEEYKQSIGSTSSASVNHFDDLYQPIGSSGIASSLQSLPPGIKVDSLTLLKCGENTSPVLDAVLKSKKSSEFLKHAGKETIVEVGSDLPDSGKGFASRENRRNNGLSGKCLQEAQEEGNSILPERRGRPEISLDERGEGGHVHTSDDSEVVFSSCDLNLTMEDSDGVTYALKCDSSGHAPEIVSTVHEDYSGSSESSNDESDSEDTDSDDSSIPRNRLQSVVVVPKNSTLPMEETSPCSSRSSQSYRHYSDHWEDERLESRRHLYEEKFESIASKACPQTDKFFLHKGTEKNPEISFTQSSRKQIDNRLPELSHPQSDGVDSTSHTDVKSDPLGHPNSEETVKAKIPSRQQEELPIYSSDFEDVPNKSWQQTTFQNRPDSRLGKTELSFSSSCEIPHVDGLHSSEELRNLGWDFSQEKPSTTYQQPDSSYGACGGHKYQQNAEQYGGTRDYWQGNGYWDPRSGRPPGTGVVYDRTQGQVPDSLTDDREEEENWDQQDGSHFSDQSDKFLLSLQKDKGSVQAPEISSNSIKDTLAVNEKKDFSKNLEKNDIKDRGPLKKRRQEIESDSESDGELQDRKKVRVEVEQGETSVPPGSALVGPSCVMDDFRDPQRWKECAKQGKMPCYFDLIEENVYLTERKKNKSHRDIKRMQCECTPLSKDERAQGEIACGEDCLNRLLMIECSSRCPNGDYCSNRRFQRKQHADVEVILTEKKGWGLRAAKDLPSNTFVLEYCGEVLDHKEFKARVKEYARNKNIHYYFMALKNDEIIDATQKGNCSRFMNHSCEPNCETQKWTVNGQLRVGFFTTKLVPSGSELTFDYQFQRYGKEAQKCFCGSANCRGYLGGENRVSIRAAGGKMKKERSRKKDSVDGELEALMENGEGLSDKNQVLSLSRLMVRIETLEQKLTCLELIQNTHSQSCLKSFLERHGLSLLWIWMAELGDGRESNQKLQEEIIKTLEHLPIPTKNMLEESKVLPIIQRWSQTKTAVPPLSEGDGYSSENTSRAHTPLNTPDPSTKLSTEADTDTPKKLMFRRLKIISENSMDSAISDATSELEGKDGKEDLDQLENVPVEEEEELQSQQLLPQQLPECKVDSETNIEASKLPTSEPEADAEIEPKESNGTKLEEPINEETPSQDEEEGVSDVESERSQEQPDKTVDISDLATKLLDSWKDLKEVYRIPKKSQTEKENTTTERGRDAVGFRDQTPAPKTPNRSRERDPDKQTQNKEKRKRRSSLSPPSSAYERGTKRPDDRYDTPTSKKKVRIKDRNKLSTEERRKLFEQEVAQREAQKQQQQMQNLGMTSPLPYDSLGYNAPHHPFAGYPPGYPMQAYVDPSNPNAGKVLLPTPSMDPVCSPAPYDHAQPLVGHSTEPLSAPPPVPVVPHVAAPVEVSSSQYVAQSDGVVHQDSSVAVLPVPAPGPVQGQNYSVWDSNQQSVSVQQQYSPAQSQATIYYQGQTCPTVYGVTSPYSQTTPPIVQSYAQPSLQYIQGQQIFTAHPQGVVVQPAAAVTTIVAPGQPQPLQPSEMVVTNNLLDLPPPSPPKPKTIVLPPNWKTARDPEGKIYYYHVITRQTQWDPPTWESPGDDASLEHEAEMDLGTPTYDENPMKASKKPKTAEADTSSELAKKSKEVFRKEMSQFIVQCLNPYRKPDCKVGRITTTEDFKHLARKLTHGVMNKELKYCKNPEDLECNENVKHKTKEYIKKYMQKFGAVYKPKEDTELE

CN1CC(C(=O)NCc2ccc3c(-c4cccc(C(N)=S)c4)cn(C4CCN(S(=O)(=O)C(F)(F)F)CC4)c3c2)C1 [AS-99]
activity at 50 µM (SETD2): 101% | % activity (SETD2; 50 µM): 99.1882% | DLX2 expression [1, 7]: 0.19 and 0.27 and 0.29 | FLT3 expression [1, 7]: 0.7 and 0.8 and 0.73 | HOXA9 expression [1, 7]: 0.46 and 0.64 and 0.75 | MEF2C expression [1, 7]: 0.64 and 0.74 and 0.63 | MEIS1 expression [1, 7]: 0.76 and 0.82 and 1.02 | MNDA expression [1, 7]: 1.48 and 1.84 and 1.74 | inhibition in a panel of representative kinases [2]: does not inhibit strongly; also recorded: did not show substantial inhibition | inhibition of the tested HMTs [3]: no significant inhibition | activity at 50 µM (GLP): 101% | % activity (GLP; 50 µM): 119.954% | GI50 (MV4;11 cells [4]; Homo sapiens, 168 h, MV4;11 (MLL1-r)): 1800 ± 200 nM | % activity MV4;11 (MV4;11 cells [4]; log[compound] -4.92082): 1.588% and 2.029% | % activity MV4;11 (MV4;11 cells [4]; log[compound] -5.22185): 0.6174% and 0.7056% and 0.9702% | % activity MV4;11 (MV4;11 cells [4]; log[compound] -5.52288): 22.9327% and 24.6086% and 18.5226% and 19.2282% | % activity MV4;11 (MV4;11 cells [4]; log[compound] -5.82391): 65.4465% and 63.065% and 69.151% and 68.269% | % activity MV4;11 (MV4;11 cells [4]; log[compound] -6.12494): 88.9085% and 99.8456% and 101.963% and 98.4344% | % activity MV4;11 (MV4;11 cells [4]; log[compound] -6.42597): 97.7288% and 98.9636% and 100.639% and 102.668% | GI50 (MOLM13 cells; Homo sapiens, MOLM-13, 168 h, MOLM13 (MLL1-r)): 3600 ± 300 nM | % activity MOLM-13 (MOLM13 cells; log[compound] -4.92082): 3.13% and 3.054% and 2.978% | % activity MOLM-13 (MOLM13 cells; log[compound] -5.22185): 1.145% and 1.069% and 1.222% | % activity MOLM-13 (MOLM13 cells; log[compound] -5.52288): 67.0357% and 69.5553% and 72.2275% and 71.6931% | % activity MOLM-13 (MOLM13 cells; log[compound] -5.82391): 99.1792% and 96.2016% and 97.7286% and 103.76% | % activity MOLM-13 (MOLM13 cells; log[compound] -6.12494): 111.472% and 117.274% and 111.243% and 116.205% | % activity MOLM-13 (MOLM13 cells; log[compound] -6.42597): 98.5684% and 93.0712% and 98.6448% and 96.736% | MV4;11 % Annexin V/PI+ cells (MV4;11 cells [5]; 3 uM): 5.84% and 5.81% and 5.56% | MV4;11 % Annexin V/PI+ cells (MV4;11 cells [5]; 4.5 uM): 21.9% and 12.8% | apoptosis in the MLL leukemia cells (Annexin V positive cells) (MV4;11 cells [5]): induced apoptosis | MV4;11 % CD11B+ cells (MV4;11 cells [6]; 3 uM): 3.77% and 4.48% and 6.27% | MV4;11 % CD11B+ cells (MV4;11 cells [6]; 6 uM): 35.3% and 55.8% and 53.8% | differentiation in MLL leukemia cells (MV4;11 cells [6]; MV4;11 and KOPN8): induced differentiation | increased expression of the CD11B differentiation marker (MV4;11 cells [6]; MV4;11 and KOPN8): up to 50% | KOPN8 % CD11B+ cells (KOPN8 cells; 1 uM): 5.69% and 3.82% and 3.42% | KOPN8 % CD11B+ cells (KOPN8 cells; 2 uM): 7.78% and 8.76% and 7.98% | KOPN8 % CD11B+ cells (KOPN8 cells; 3 uM): 12.9% and 10.3% and 9.53% | KOPN8 % CD11B+ cells (KOPN8 cells; 4 uM): 24.5% and 25.6% | activity at 50 µM (PRMT1): 122% | % activity (PRMT1; 50 µM): 110.616% | activity at 50 µM (MLL1): 50% | % activity (MLL1; 50 µM): 69.7738% | activity at 50 µM (G9a): 90.9% | % activity (G9a; 50 µM): 91.9579%

CN1CC(C(=O)NCc2ccc3c(-c4cccc(C(N)=O)c4)cn(C4CCN(S(=O)(=O)C(F)(F)F)CC4)c3c2)C1 [AS-nc]
MV4;11 fold change vs DMSO, FLT3 ([1]; AS-nc 3 uM): 1.06 and 0.99 and 0.95 | MV4;11 fold change vs DMSO, HOXA9 ([1]; AS-nc 3 uM): 1.01 and 0.9 | MV4;11 fold change vs DMSO, MEF2C ([1]; AS-nc 3 uM): 1.19 and 1.02 and 0.92 | MV4;11 fold change vs DMSO, MESIS1 ([1]; AS-nc 3 uM): 0.86 and 1.07 and 0.96 | % activity MV4;11 (MV4;11 cells [4]; log[compound] -4.92082): 33.9271% and 38.4523% and 37.682% and 37.2006% | % activity MV4;11 (MV4;11 cells [4]; log[compound] -5.22185): 75.4242% and 68.4439% and 74.2207% and 76.0501% | % activity MV4;11 (MV4;11 cells [4]; log[compound] -5.52288): 93.14% and 102.624% and 98.3873% and 102.19% | % activity MV4;11 (MV4;11 cells [4]; log[compound] -5.82391): 95.1619% and 88.5666% and 92.2253% and 96.7986% | % activity MV4;11 (MV4;11 cells [4]; log[compound] -6.12494): 101.179% and 95.4026% and 92.466% and 99.4464% | % activity MV4;11 (MV4;11 cells [4]; log[compound] -6.42597): 105.753% and 96.7024% and 99.7834% and 97.7615% | % activity MOLM-13 (MOLM13 cells; log[compound] -4.92082): 79.465% and 80.5109% and 111.082% and 96.078% | % activity MOLM-13 (MOLM13 cells; log[compound] -5.22185): 91.4119% and 88.8777% and 88.5559% and 94.107% | % activity MOLM-13 (MOLM13 cells; log[compound] -5.52288): 100.261% and 95.3942% and 100.744% and 98.5318% | % activity MOLM-13 (MOLM13 cells; log[compound] -5.82391): 98.572% and 96.1183% and 100.945% and 90.7281% | % activity MOLM-13 (MOLM13 cells; log[compound] -6.12494): 105.41% and 99.4972% and 101.227% and 102.474% | % activity MOLM-13 (MOLM13 cells; log[compound] -6.42597): 103.801% and 99.1352% and 97.8479% and 99.2156% | MV4;11 % Annexin V(+) cells (MV4;11 cells [5]; 2 uM): 3.62% and 6.04% and 7.38% | MV4;11 % Annexin V(+) cells (MV4;11 cells [5]; 4 uM): 2.35% and 3.67% and 4.83% | MV4;11 % Annexin V(+) cells (MV4;11 cells [5]; 6 uM): 3% and 3.59% and 6.28% | apoptosis in the MLL leukemia cells (Annexin V positive cells) (MV4;11 cells [5]): not observed | MV4;11 % CD11B+ cells (MV4;11 cells [6]; 2 uM): 1.31% and 1.08% and 1.06% | MV4;11 % CD11B+ cells (MV4;11 cells [6]; 4 uM): 0.67% and 0.84% and 0.66% | MV4;11 % CD11B+ cells (MV4;11 cells [6]; 6 uM): 1.1% and 1.04% and 1.27% | differentiation in MLL leukemia cells (MV4;11 cells [6]; MV4;11 and KOPN8): not observed | KOPN8 % CD11B+ cells (KOPN8 cells; 2 uM): 0.42% and 0.43% and 0.48% | KOPN8 % CD11B+ cells (KOPN8 cells; 4 uM): 0.64% and 0.72% and 0.67% | KOPN8 % CD11B+ cells (KOPN8 cells; 6 uM): 0.89% and 0.7% and 0.72%
